# The supplement of paper PMC10307832
# Compound: COc1nc(N)nc2c1ncn2[C@@H]1O[C@H](CO)[C@@H](O)[C@@H]1O [Nelarabine] + CC(=O)c1c(C)c2cnc(Nc3ccc(N4CCNCC4)cn3)nc2n(C2CCCC2)c1=O [Palbociclib] (partner 0.5 µM)
# Assay: relative viability (nuclei count vs DMSO), 5 days (fraction); higher = more cells survive
# Details: first compound 0.01 µM
# Outline: (§1)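 Lung cancer cell lines, seeded in 1536-well plates, were treated the following day by pin tool with a single drug or with five library-drug doses (not always all listed) in √10 steps on top of a fixed anchor-drug dose. Cells were fixed and nuclei stained in one step after 5 days, and nuclei were counted. Relative viability is the nuclei count for treated wells divided by that for vehicle wells, reported as medians of duplicate plates.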
row,Cell Line,relative viability
1,PC-3 [JPC-3],0.562
2,PC-14,0.705
3,RERF-LC-KJ,1.13
4,SK-LU-1,0.456
5,SK-MES-1,0.3
6,SW 900,0.567
7,SW 1573,0.465
8,UMC-11,0.361

# Same assay, conditions: first compound 0.03162 µM
row,Cell Line,relative viability
1,PC-3 [JPC-3],0.544
2,PC-14,0.53
3,RERF-LC-KJ,1.17
4,SK-LU-1,0.276
5,SK-MES-1,0.327
6,SW 900,0.604
7,SW 1573,0.382
8,UMC-11,0.269

# Same assay, conditions: first compound 0.1 µM
row,Cell Line,relative viability
1,PC-3 [JPC-3],0.524
2,PC-14,0.582
3,RERF-LC-KJ,1.09
4,SK-LU-1,0.352
5,SK-MES-1,0.305
6,SW 900,0.504
7,SW 1573,0.41
8,UMC-11,0.318

# Same assay, conditions: first compound 0.3162 µM
row,Cell Line,relative viability
1,PC-3 [JPC-3],0.526
2,PC-14,0.601
3,RERF-LC-KJ,1.17
4,SK-LU-1,0.376
5,SK-MES-1,0.316
6,SW 900,0.6
7,SW 1573,0.399
8,UMC-11,0.332

# Same assay, conditions: first compound 1 µM
row,Cell Line,relative viability
1,PC-3 [JPC-3],0.533
2,PC-14,0.706
3,RERF-LC-KJ,0.97
4,SK-LU-1,0.377
5,SK-MES-1,0.354
6,SW 900,0.593
7,SW 1573,0.338
8,UMC-11,0.351

# Compound: COc1nc(N)nc2c1ncn2[C@@H]1O[C@H](CO)[C@@H](O)[C@@H]1O [Nelarabine] + O=C(c1cc(Cc2n[nH]c(=O)c3ccccc23)ccc1F)N1CCN(C(=O)C2CC2)CC1 [Olaparib] (partner 8 µM)
# Assay: as above
# Details: first compound 0.01 µM
# Outline: as §1
row,Cell Line,relative viability
1,PC-3 [JPC-3],1.46
2,PC-14,0.265
3,RERF-LC-KJ,0.946
4,SK-LU-1,0.524
5,SK-MES-1,0.819
6,SW 900,0.843
7,SW 1573,0.52
8,UMC-11,0.36

# Same assay, conditions: first compound 0.03162 µM
row,Cell Line,relative viability
1,PC-3 [JPC-3],1.2
2,PC-14,0.205
3,RERF-LC-KJ,1
4,SK-LU-1,0.314
5,SK-MES-1,0.66
6,SW 900,0.752
7,SW 1573,0.469
8,UMC-11,0.469

# Same assay, conditions: first compound 0.1 µM
row,Cell Line,relative viability
1,PC-3 [JPC-3],1.1
2,PC-14,0.31
3,RERF-LC-KJ,1.11
4,SK-LU-1,0.5
5,SK-MES-1,0.707
6,SW 900,0.96
7,SW 1573,0.553
8,UMC-11,0.356

# Same assay, conditions: first compound 0.3162 µM
row,Cell Line,relative viability
1,PC-3 [JPC-3],1.25
2,PC-14,0.251
3,RERF-LC-KJ,0.987
4,SK-LU-1,0.505
5,SK-MES-1,0.773
6,SW 900,0.949
7,SW 1573,0.565
8,UMC-11,0.386

# Same assay, conditions: first compound 1 µM
row,Cell Line,relative viability
1,PC-3 [JPC-3],1.22
2,PC-14,0.294
3,RERF-LC-KJ,0.852
4,SK-LU-1,0.397
5,SK-MES-1,0.762
6,SW 900,0.797
7,SW 1573,0.66
8,UMC-11,0.357
